Assay: Phase I safety, DLT and MTD in patients with solid tumours
Type: in vivo
Text: This was a phase I, multicentre, open-label study, conducted to investigate the safety, pharmacokinetics (PKs), and determine the maximum tolerated dose (MTD) of oral TAK-285 in patients with solid tumours. Two cohorts were planned for this study: a dose escalation cohort and a repeated administration cohort. In the dose escalation cohort, patients received a single oral dose of TAK-285, followed by 2–6 days of observation without treatment, followed by treatment with the same dose if the safety was confirmed. In this cohort, patients received TAK-285 […]. One cycle was 4 weeks, consisting of 3 weeks of treatment and 1 week of observation without treatment. TAK-285 was given once daily (q.d.) or twice daily (b.i.d.). The dose was escalated from a starting dose of 50 mg until the MTD was determined. In the repeated administration cohort, patients were treated with oral TAK-285 at the MTD for at least 4 weeks in order to confirm safety.
In the dose escalation cohort, the dose of TAK-285 was decided by consideration of adverse events (AEs) observed during the first cycle. […] Dose escalation was continued until the MTD was determined. The dose of TAK-285 was increased by 100 or 40% in accordance with accelerated titration designs reported previously ([Simon et al, 1997]). A DLT was defined as any TAK-285-related grade 4 haematological toxicity, grade 3 or worse non-haematological toxicity, grade 3 or worse neutropenia (<1000 mm^–3) with fever of 38 °C or higher, or toxicity resulting in cessation of treatment for >21 consecutive days (including the stipulated period of observation without treatment).
Safety evaluations included vital signs (oxygen saturation, body temperature, breathing rate, blood pressure and pulse), clinical laboratory tests, lung function tests (pulmonary surfactant protein-A, pulmonary surfactant protein-D, Krebs von den Lunge-6 and arterial blood gas analysis), chest X-ray, and 12-lead electrocardiogram (ECG). These tests were performed weekly with the exception of chest X-rays (every 4 weeks), arterial blood gas analysis (at screening) and ECG (4 time points each at screening, on day 1 and day 8, after DLT assessment, one time point every 4 weeks). All ECG charts were submitted to the ECG evaluation committee to assess cardiac function. Adverse events were graded based on the National Cancer Institute Common Toxicity Criteria for Adverse Events, version 3.0 (Bethesda, MD, USA).

CC(C)(O)CC(=O)NCCn1ccc2ncnc(Nc3ccc(Oc4cccc(C(F)(F)F)c4)c(Cl)c3)c21 [TAK-285]
patients who died during the study (cause considered unrelated to TAK-285): Two | Alanine aminotransferase increased ⩾Grade 3, number of patients (human, in vivo): 4 | Alanine aminotransferase increased, incidence (human, in vivo): 46.2% | Alanine aminotransferase increased, number of patients (human, in vivo): 12 | Any adverse events ⩾Grade 3, number of patients (human, in vivo): 12 | Any adverse events, incidence (human, in vivo): 100.0% | Any adverse events, number of patients (human, in vivo): 26 | Aspartate aminotransferase increased ⩾Grade 3, number of patients (human, in vivo): 3 | Aspartate aminotransferase increased, incidence (human, in vivo): 46.2% | Aspartate aminotransferase increased, number of patients (human, in vivo): 12 | Blood alkaline phosphatase increased ⩾Grade 3, number of patients (human, in vivo): 0 | Blood alkaline phosphatase increased, incidence (human, in vivo): 19.2% | Blood alkaline phosphatase increased, number of patients (human, in vivo): 5 | Blood bilirubin increased ⩾Grade 3, number of patients (human, in vivo): 1 | Blood bilirubin increased, incidence (human, in vivo): 34.6% | Blood bilirubin increased, number of patients (human, in vivo): 9 | Blood creatinine increased ⩾Grade 3, number of patients (human, in vivo): 0 | Blood creatinine increased, incidence (human, in vivo): 11.5% | Blood creatinine increased, number of patients (human, in vivo): 3 | Blood lactate dehydrogenase increased ⩾Grade 3, number of patients (human, in vivo): 1 | Blood lactate dehydrogenase increased, incidence (human, in vivo): 19.2% | Blood lactate dehydrogenase increased, number of patients (human, in vivo): 5 | Cancer pain ⩾Grade 3, number of patients (human, in vivo): 1 | Cancer pain, incidence (human, in vivo): 19.2% | Cancer pain, number of patients (human, in vivo): 5 | Constipation ⩾Grade 3, number of patients (human, in vivo): 0 | Constipation, incidence (human, in vivo): 26.9% | Constipation, number of patients (human, in vivo): 7 | Decreased appetite ⩾Grade 3, number of patients (human, in vivo): 2 | Decreased appetite, incidence (human, in vivo): 23.1% | Decreased appetite, number of patients (human, in vivo): 6 | Diarrhoea ⩾Grade 3, number of patients (human, in vivo): 0 | Diarrhoea, incidence (human, in vivo): 34.6% | Diarrhoea, number of patients (human, in vivo): 9 | Dry skin ⩾Grade 3, number of patients (human, in vivo): 0 | Dry skin, incidence (human, in vivo): 15.4% | Dry skin, number of patients (human, in vivo): 4 | Gamma-glutamyltransferase increased ⩾Grade 3, number of patients (human, in vivo): 4 | Gamma-glutamyltransferase increased, incidence (human, in vivo): 26.9% | Gamma-glutamyltransferase increased, number of patients (human, in vivo): 7 | Haemoglobin decreased ⩾Grade 3, number of patients (human, in vivo): 1 | Haemoglobin decreased, incidence (human, in vivo): 11.5% | Haemoglobin decreased, number of patients (human, in vivo): 3 | Nausea ⩾Grade 3, number of patients (human, in vivo): 0 | Nausea, incidence (human, in vivo): 19.2% | Nausea, number of patients (human, in vivo): 5 | Pyrexia ⩾Grade 3, number of patients (human, in vivo): 0 | Pyrexia, incidence (human, in vivo): 23.1% | Pyrexia, number of patients (human, in vivo): 6 | Rash ⩾Grade 3, number of patients (human, in vivo): 0 | Rash, incidence (human, in vivo): 42.3% | Rash, number of patients (human, in vivo): 11 | Stomatitis ⩾Grade 3, number of patients (human, in vivo): 0 | Stomatitis, incidence (human, in vivo): 11.5% | Stomatitis, number of patients (human, in vivo): 3 | Vomiting ⩾Grade 3, number of patients (human, in vivo): 0 | Vomiting, incidence (human, in vivo): 15.4% | Vomiting, number of patients (human, in vivo): 4 | grade 4 AEs related to TAK-285 (human, in vivo): no grade 4 AEs | grade of diarrhoea (human, in vivo): ≤ 2 grade | grade of rash (human, in vivo): ≤ 2 grade | lung function tests, chest X-rays, vital signs or ECGs (human, in vivo): No clinically significant changes | patients with AEs considered related to TAK-285, number (human, in vivo): 22 | patients with AEs considered related to TAK-285, percent (human, in vivo): 84.6% | patients with dose-limiting toxicities (human, in vivo): two | pneumonitis (human, in vivo): not reported | related AEs grade 2, number of patients (human, in vivo): 11 | related AEs grade 2, percent of patients (human, in vivo): 42.3% | related AEs grade 2 or lower, number of patients (human, in vivo): 17 | related AEs grade 2 or lower, percent of patients (human, in vivo): 65.4% | related AEs grade 3, number of patients (human, in vivo): 5 | related AEs grade 3, percent of patients (human, in vivo): 19.2% | maximum tolerated dose (MTD) (oral, patients with solid tumours): 300 mg b.i.d.
